Measured values from patent publication US5225436A, “Aryl substituted naphthalene derivatives” (Schering Corporation, priority 1991, dated 1993).
Like-named read-outs stand apart in the source and are kept apart here.

Experiments:
[1] = system: SRS-A / leukotriene release from antigen-challenged, sensitized guinea pig lung; assay: Inhibition of SRS-A (leukotriene) release from antigen-challenged, sensitized guinea pig lung; format: cell-based; set-up: inhibition: dose or concentration left out as unconfirmed; settings: Cavia porcellus; for inhibition: Dose 30 μm (μM)
Source text: The anti-allergy method of this invention is identified by tests which measure a compound's inhibition of leukotriene release in sensitized guinea pigs. Sensitized guinea pigs are killed by a blow to the head and the lungs removed and cleaned of visible connective tissue, trachea and large blood vessels. The lungs from individual animals are sliced into fragments approximately 1 mm in thickness using a McIlwain tissue chopper and then washed with oxygenated Tyrode's buffer. Weighed aliquots (approximately 400 mg wet weight) of lung are transferred into vials containing 2 ml of fresh Tyrode's solution (containing 10 mM cysteine) and incubated in the presence or absence of test compound for 12 min at 37° C. The tissues are then challenged with 20 μg ovalbumin/ml (final concentration) and incubated for 15 min. To measure leukotriene release, an aliquot of supernatant fluid is extracted with 4 volumes of 100% ethanol. After removal of the precipitated protein, the clear fluid is dried under a stream of N2 gas. The leukotriene content is measured by a radioimmunoassay using [^3 H]LTC4 and antiserum obtained from New England Nuclear. The cross-reactivity of the antiserum for LTD4 is 55%. Percent inhibition of lekotriene release is calculated by comparing for each lung the release in the presence of the test compound to that in the absence of test compound. Representative compounds of the invention at a relative dose of 50 μM of tissue are found to inhibit leukotriene release in the test procedure as indicated below in Table 1: […]

[2] = system: anaphylactic bronchospasm (antigen-induced SRS-A mediated bronchoconstriction); assay: Inhibition of anaphylactic bronchospasm in sensitized guinea pigs; format: in vivo, guinea pig; settings: Cavia porcellus, iv, 0.25 h; for inhibition in vivo at 10 mg/kg: read-out: % Inhibition of anaphylactic bronchospasm; for inhibition in vivo at 3 mg/kg: Dose 3 mpk
Description: The anti-allergy method of this invention is identified by tests which measure a compound's inhibition of anaphylactic bronchospams-in sensitized guinea pigs having antigen-induced SRS-A mediated bronchoconstriction. Allergic bronchospams was measured in actively sensitized guinea pigs by a modification of the procedure of Konzett and Rossler, Arch. Exptl. Pathol. Pharmakol., 194, pp. 71-74 (1940). Male Hartley guinea pigs were sensitized with 5 mg ovalbumin injected ip and 5 mg injected sc in 1 ml saline on day 1 and 5 mg ovalbumin injected ip on day 4. The sensitized animals were used 3-4 weeks later. To measure anaphylactic bronchospasm, sensitized guinea pigs were fasted overnight and the following morning were anesthetized with 0.9 ml/kp ip dialurethane. The trachea and jugular vein were cannulated and the animals were ventilated by a Harvard rodent respirator. A side arm to the tracheal cannula was connected to a Harvard pressure transducer to obtain a continuous measure of intratracheal pressure. An increase in intratracheal pressure was taken as a measure of bronchoconstriction. Each guinea pig was injected iv with 1 mg/kg propranolol, 5 mg/kg indomethacin and 2 mg/kg mepyramine given together in a volume of […]. Fifteen minutes later, the animals were challenged with antigen (0.5 percent ovalbumin) delivered as an aerosol generated from a DeVilbiss Model 65 ultrasonic nebulizer and delivered through the tracheal cannula for 30 seconds. Bronchoconstriction was measured as the peak increase in intratracheal pressure occurring within 15 minutes after antigen challenge.

5-lipoxygenase = target: T1, 5-lipoxygenase (Homo sapiens, UniProt P09917); assay: 5-Lipoxygenase assay with human neutrophils; format: cell-based; settings: 5 min, Human PMN, dose 15 μm (μM)
T1 construct: Human polymorphonuclear leukocytes (neutrophils) were obtained from normal healthy volunteers; endogenous in cells; host or cells: human blood neutrophils from healthy volunteers
T1 sequence (P09917 1-674): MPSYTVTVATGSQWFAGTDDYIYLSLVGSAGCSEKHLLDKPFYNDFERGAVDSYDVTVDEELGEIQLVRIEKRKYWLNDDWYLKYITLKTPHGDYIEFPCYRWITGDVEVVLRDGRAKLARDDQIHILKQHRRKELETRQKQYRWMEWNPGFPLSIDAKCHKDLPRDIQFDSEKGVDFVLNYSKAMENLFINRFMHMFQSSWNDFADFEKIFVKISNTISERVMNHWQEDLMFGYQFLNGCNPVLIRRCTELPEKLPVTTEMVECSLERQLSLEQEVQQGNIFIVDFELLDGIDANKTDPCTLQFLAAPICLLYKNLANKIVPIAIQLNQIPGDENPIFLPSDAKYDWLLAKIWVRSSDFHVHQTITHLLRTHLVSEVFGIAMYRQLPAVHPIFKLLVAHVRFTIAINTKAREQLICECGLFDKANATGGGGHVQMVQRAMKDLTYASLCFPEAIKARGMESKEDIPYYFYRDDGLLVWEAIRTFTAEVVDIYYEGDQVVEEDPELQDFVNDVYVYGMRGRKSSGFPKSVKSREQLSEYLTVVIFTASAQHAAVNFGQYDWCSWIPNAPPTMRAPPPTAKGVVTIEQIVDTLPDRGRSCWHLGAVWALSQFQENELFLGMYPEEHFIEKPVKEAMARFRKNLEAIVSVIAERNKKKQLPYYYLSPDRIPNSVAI
Description: Human polymorphonuclear leukocytes (neutrophils) were obtained from normal healthy volunteers by venipuncture and collected with heparin anticoagulant. Neutrophils were isolated by Dextran/Ficol sedimentation as described (Billah et al., J. Biol. Chem. 260, 6899-6906 (1985)). In brief, 30 ml of blood was mixed with 5 ml of dextran (Sigma) solution and kept at 37° C. for 30 min. The upper white cell-rich layer was removed and 10 ml was layered on 9 ml of Ficol-Paque solution (Pharmacia) and centrifuged at 280 xg for 10 min. at 5° C. The supernatant was removed and the neutrophil pellet was resuspended in HEPES buffer containing 25 mM N-2-hydroxyethylpiperazine-N^1 -2-ethanesulfonic acid HEPES, 125 mM NaCl, 2.5 mM KCl, 0.7 mM MgCl2, […] 10 mM glucose at pH 7.4. The red cells in the suspension were lysed by hypotonic shock. The neutrophils were washed by centrifugation in HEPES buffer two times and finally resuspended at a concentration of 20×10^6 cells/ml in the presence of 1 mM CaCl2.
Neutrophils (0.2 ml of suspension) were preincubated with dimethylsulfoxide (DMSO) vehicle with or without test compound (1 ul) for 4 minutes then incubated for 5 minutes with [^14 C] arachidonic acid (Amersham, 59 Ci/mole) at a 9 uM final concentration, and the calcium ionophore A23187 (Calbiochem) at a 1 uM final concentration. These stimulants were added in 10 ul of water:ethanol (9:1). The reaction was stopped by addition of methanol (0.4 ml), and cellular debris was removed by centrifugation. Aliquots (100 ul) of the incubations were run on a Waters two pump HPLC system fitted with a DuPont Zorbax ODS, 5u, […] Reliance Cartridge column and C18 "Guard Pak". The column was initially eluted at 2 ml/min with 80% of the mixture water:methanol:acetic acid (46:54:0.08) containing 1 mM EDTA adjusted to pH 6.0 with ammonium hydroxide (Pump A) and 20% methanol (Pump B). At 10 minutes, a linear gradient to reach 100% methanol (Pump B) at 27 minutes was established. Between 27 and 28 minutes, methanol was exchanged for the initial eluting solvent and by 35 minutes the column had been reequilibrated for the next sample. The effluent was analyzed by a continuous flow radioactivity monitor (model ROMONA-D) interfaced with a Hewlett Packard Lab Automation System for quantitation of radioactive products. These were predominantly leukotriene B4 (LTB4) which eluted at 7 minutes, and 5-hydroxyeicosatetraenoic acid (5-HETE) which eluted at 20 minutes.

SMILES	inhibition at 15 µM (5-lipoxygenase; read-out: % Inhibition 5-HETE)	inhibition at 15 µM (5-lipoxygenase; read-out: % Inhibition LTB)	inhibition [1]	inhibition in vivo at 10 mg/kg ([2]; Dose 10 mpk)	inhibition at 10 µM [1]	inhibition in vivo at 10 mg/kg [2]	inhibition in vivo at 3 mg/kg [2]
COc1cc(OC)c2c(c1)C(C)(C)C(c1ccc(OC)c(OC)c1)=C(C)C2=O	1%	0%	–	24%	20%	–	–
CN(C)C(=O)Oc1cc(OC(=O)N(C)C)c2c(c1)C(C)(C)C(c1ccc(OC(=O)N(C)C)c(OC(=O)N(C)C)c1)=CC2=O	–	–	–	–	–	10%	–
CCOc1cc(OC)cc2c1C(=NO)CC(c1ccc(OC)c(OC)c1)C2(C)C (stereo not drawn)	–	–	–	–	–	–	25%
COc1cc(OC)c2c(c1)C(C)(C)C(c1ccc(OC)c(OC)c1)CC(=NO)C2 (stereo not drawn) [drawing 89 [X=CH2; R3/R4=NOH; P=OCH3]]	87%	–	46%	–	–	–	0%
COc1cc(OC)c2c(c1)C(C)(C)C(c1ccc(OC)c(OC)c1)CC2=NOC(=O)C(C)(C)C (stereo not drawn)	–	–	–	20%	–	–	–
COc1cc(OC)c2c(c1)C(C)(C)C(c1ccc(OC)c(OC)c1)CC2=NNC(N)=O (stereo not drawn)	2%	0%	–	20%	1%	–	–
COc1cc(O)c2c(c1)C(C)(C)C(c1ccc(OC)c(OC)c1)CC2=NO (stereo not drawn)	42%	–	–	0%	–	–	–
COc1cc(OC)c2c(c1)C(C)(C)C(c1ccc(OC)c(OC)c1)=CC2=NO	0%	9%	0%	0%	–	–	–

More lines, main results first:

inhibition at 15 µM (5-lipoxygenase; read-out: % Inhibition 5-HETE)	inhibition at 15 µM (5-lipoxygenase; read-out: % Inhibition LTB)	SMILES	inhibition [1]	inhibition in vivo at 10 mg/kg ([2]; Dose 10 mpk)	inhibition at 10 µM [1]	inhibition in vivo at 10 mg/kg [2]	inhibition in vivo at 3 mg/kg [2]
73%	–	COc1ccc2c(c1)C(C)(C)C(c1ccc(OC)c(OC)c1)CCN2 (stereo not drawn) [drawing 89 [X=NH; R3/R4=H,H; P=H]]	57%	42%	–	–	–
9%	–	COc1cc(OC)c2c(c1)C(C)(C)C(c1ccc(OC)c(OC)c1)CC(=O)O2 (stereo not drawn) [drawing 89 [X=O; R3/R4=O; P=OCH3]]	59%	4%	–	–	–
39%	63%	COc1cc(OC)c2c(c1)C(C)(C)C(c1ccc(OC)c(OC)c1)CCN2 (stereo not drawn) [drawing 89 [X=NH; R3/R4=H,H; P=OCH3]]	45%	34%	–	–	–
51%	45%	COc1cc(OC)c2c(c1)C(C)(C)C(c1ccc(OC)c(OC)c1)CCC2=O (stereo not drawn) [drawing 90 [X=O; W=H; J=H]]	78%	56%	–	–	–
2%	–	COc1cc(OC)c2c(c1)C(C)(C)C(c1ccc(OC)c(OC)c1)CCC2=NO (stereo not drawn) [drawing 90 [X=NOH; W=H; J=H]]	58%	10%	–	–	–
87%	97%	COc1cc(OC)c2c(c1)C(C)(C)C(c1ccc(OC)c(OC)c1)CC(=O)C2 (stereo not drawn) [drawing 89 [X=CH2; R3/R4=O; P=OCH3]]	47%	0%	–	–	–
0%	2%	COc1cc(OC)c2c(c1)C(C)(C)C(c1ccc(OC)c(OC)c1)CC(=O)N2 (stereo not drawn) [drawing 89 [X=NH; R3/R4=O; P=OCH3]]	65%	–	–	–	20%
28%	–	COc1cc(OC)c2c(c1)C(C)(C)C(c1ccc(OC)c(OC)c1)CC(C)C2=O (stereo not drawn) [drawing 90 [X=O; W=H; J=CH3]]	61%	53%	–	–	–
